ChEMBL document CHEMBL1155586, “Streptazones A, B(1), B(2), C, and D: new piperidine alkaloids from streptomycetes” (2000)
Calls of active or inactive are those of the source. The rule behind the calls is not given here.

Tests used:
Kato3 = assay: Cytotoxicity against human Kato3 cells at 50 umol/L; assay type: functional, cell-based
HMO2 = assay: Cytotoxicity against human HMO2 cells at 50 umol/L; assay type: functional, cell-based
MCF7 [1] = assay: Cytotoxicity against human MCF7 cells at 50 umol/L; assay type: functional, cell-based
[2] = Cytotoxicity against human HMO2 cells; assay type: functional
MCF7 [3] = assay: Cytotoxicity against human MCF7 cells; assay type: functional
HepG2 = assay: Cytotoxicity against human HepG2 cells; assay type: functional
[4] = Cytotoxicity against human Kato3 cells; assay type: functional

Structure (SMILES)	Activity (Kato3)	Activity (HMO2)	Activity (MCF7 [1])	GI50 [2] [nM]	TGI [2] [nM]	GI50 (MCF7 [3]) [nM]	TGI (MCF7 [3]) [nM]	GI50 (HepG2) [nM]	TGI (HepG2) [nM]	GI50 [4] [nM]	TGI [4] [nM]
C/C=C1/C2=CCCN3C(=O)O[C@H]([C@H]1O)[C@H]23	inactive	inactive	inactive								
C/C=C/C=C/C1=CC(=O)CCN1	inactive	inactive	inactive								
C/C=C1\C=CC2=C1C(=O)CCN2	inactive	inactive	inactive								
C/C=C1\C(=O)C=C2NCCC3OC213 (stereo not given) [STREPTAZONE A]				500	50000	15000	50000	< 100	2500	600	1000
C/C=C1\C(=O)C=C2NCCC=C21	inactive	inactive	inactive								
